Measured values: paper PMC11180795 (Frontiers in Pharmacology, 2024)

Columns and labels:
Type in all cases: cell-based, Murine
IL-10 = test: Th1/Th2 cytokine measurement (Cytometric Bead Array) in LPS-stimulated Raw 264.7 cells, IL-10; settings: compound at 20 µM, LPS 0.1 μg/mL, 24 h; stimulated untreated control 0.88 pg/mL
Protocol: (§1) Raw 264.7 cells were seeded at 2 × 10^5 cells/mL in a 48-well microplate and allowed to adhere for 24 h, then treated with LPS 0.1 μg/mL and with compounds (1), (5) and (6) at 20 µM. Untreated cells and indomethacin (10 µM) were used as controls. After 24 h of incubation, the supernatant was collected and the amount of pro-inflammatory Th1 cytokines (IFN-γ, TNF-α, and IL-2) and anti-inflammatory Th2 cytokines (IL-4, IL-6, and IL-10) released measured. The experiment was performed according to the manufacturer’s instructions using BD™ Cytometric Bead Array (CBA) […] Th1/Th2 Cytokine Kit (BD-Biosciences), and data were acquired on a BD LSR Fortessa™ cell analyzer flow cytometer.

IFN-γ = test: Th1/Th2 cytokine measurement (Cytometric Bead Array) in LPS-stimulated Raw 264.7 cells, IFN-γ; settings: compound at 20 µM; for effect on IFN-γ production (in words): vs stimulated and untreated control
Protocol: as §1

COX-2 = target: T1, COX-2 (Mus musculus, UniProt Q05769); test: Fluorometric COX activity assay in lysate of LPS-treated Raw 264.7 cells, COX-2; settings: compound at 20 µM, LPS 0.1 μg/mL, 24 h; untreated control 99.85 µU/mg
T1 construct: The cell lysate was centrifuged at 12000 x g for 3 min and the supernatant was collected for COX activity assay; endogenous in cells
T1 sequence (Q05769 18-604): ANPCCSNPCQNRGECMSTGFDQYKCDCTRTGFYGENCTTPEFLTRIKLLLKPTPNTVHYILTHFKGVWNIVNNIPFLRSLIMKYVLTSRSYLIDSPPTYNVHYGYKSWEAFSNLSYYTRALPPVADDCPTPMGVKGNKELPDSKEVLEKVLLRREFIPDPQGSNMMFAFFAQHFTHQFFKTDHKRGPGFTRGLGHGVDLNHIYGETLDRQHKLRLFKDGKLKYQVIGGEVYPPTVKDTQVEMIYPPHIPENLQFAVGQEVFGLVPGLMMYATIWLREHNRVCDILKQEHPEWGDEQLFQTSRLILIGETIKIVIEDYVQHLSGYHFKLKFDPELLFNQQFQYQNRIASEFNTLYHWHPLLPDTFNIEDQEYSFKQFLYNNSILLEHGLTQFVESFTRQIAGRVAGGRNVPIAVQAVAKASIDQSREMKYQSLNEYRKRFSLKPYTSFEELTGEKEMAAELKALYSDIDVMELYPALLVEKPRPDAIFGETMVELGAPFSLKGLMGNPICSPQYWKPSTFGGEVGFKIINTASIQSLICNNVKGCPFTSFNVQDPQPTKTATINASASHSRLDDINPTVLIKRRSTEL
Protocol: The fluorometric cyclooxygenase activity assay kit (Biovision) was used to evaluate the activity of COX-1 and COX-2 enzymes. Raw 264.7 cells were seeded at 2 × 10^5 cells/mL in a 48-well microplate, and allowed to adhere for 24 h, then treated with LPS 0.1 μg/mL and compounds (1), (5) and (6) at 20 µM against Raw 264.7 cells. After 24 h the cyclooxygenase enzyme (COX-1 and COX-2) activity assay was performed. Cells were detached with TNE buffer (Tris 40 mM, NaCl 150 mM, EDTA 1 mM) and washed with PBS (1x), then re-suspended in 1 mL PBS (1x), transferred into 1.5 mL tube, and centrifuged at 500 x g for 3 min. The pellet was then re-suspended in 0.5 mL of lysis buffer with a protease inhibitor cocktail, vortexed, and incubated at 4°C for 5 min. The cell lysate was centrifuged at 12000 x g for 3 min and the supernatant was collected for COX activity assay. The COX activity was assessed using the fluorometric cyclooxygenase activity assay kit (Biovision) following the manufacturer’s instructions. The assay includes COX-1 and COX-2 specific inhibitors to differentiate the activity of COX-1 and COX-2 as well as other peroxidases. Indomethacin (10 µM) was used as a standard drug and appropriate controls were also included.

Row | COX-2 activity (COX-2) | SMILES | IL-10 level (IL-10) | IFN-γ level (IFN-γ; LPS 0.1 μg/mL, 24 h, stimulated untreated control 0.84 pg/mL) | effect on IFN-γ production (in words) (IFN-γ)
1 | 59.33 µU/mg | CC(C)=CCc1c2c(c3oc4c(O)cccc4c(=O)c3c1O)C=CC(C)(C)O2 [Compound 1, Ananixanthone] | 0.971 pg/mL | 0.43 pg/mL | –
2 | 88.10 µU/mg | CC(C)=CCC/C(C)=C/C[C@]12C[C@@H](CC=C(C)C)C(C)(C)[C@](C/C=C(\C)CCC=C(C)C)(C(=O)C(C(=O)c3ccc(O)c(O)c3)=C1O)C2=O [Compound 5, Guttiferone O] | 2.05 pg/mL | – | significantly reduces
3 | 43.84 µU/mg | CC(C)=CCC/C(C)=C/C[C@]12C[C@@H](CC=C(C)C)C(C)(C)[C@](CC=C(C)C)(C(=O)C(C(=O)c3ccc(O)c(O)c3)=C1O)C2=O [Compound 6, Guttiferone M] | 1.77 pg/mL | – | moderate decrease
